Experiment in all cases: agar-dilution method, minimum inhibitory concentration
Common to all, as to assay type: cell-based

The test system of assay [1] is Bacillus subtilis ATCC 6633. The source says: (§1) In order to illustrate the utility of the objective compound (I), anti-bacterial activities measured by the agar-dilution method for some of these compounds (I) are shown in table 1.
The subject of assay [2] is Cytrobacter freundii GN346. As to conditions: read-out: Minimum Inhibitory Concentration.
From the text: as §1

Assay [3] has as its system Enterobacter cloacae GN7471.
From the text: as §1

A further assay has as its system Escherichia coli 255.
From the text: as §1

The test system of a further assay is Escherichia coli No. 29.
From the text: as §1

Assay [4] concerns Klebsiella pneumoniae GN69.
From the text: as §1

In the next assay the test system is Proteus vulgaris 76.
From the text: as §1

Assay [5] has as its system Pseudomonas aeruginosa E-2.
From the text: as §1

In assay [6] the test system is Pseudomonas aeruginosa IMA-1007.
From the text: as §1

Assay [7] relates to Pseudomonas aeruginosa M-0148.
From the text: as §1

The test system of assay [8] is Pseudomonas cepacia M-0527. As to conditions: Burkholderia cepacia, M0527.
From the text: as §1

Assay [9] has as its system Serratia marcescens No. 1.
From the text: as §1

The test system of assay [10] is Staphylococcus aureus 209PJC-1.
From the text: as §1

The mark [11] stands for this setting: ATCC6633, Bacillus subtilis ATCC 6633, agar-dilution method, read-out: Minimum Inhibitory Concentration.
Setting [12] is: Cytrobacter freundii GN346, agar-dilution method.
Setting [13] is: Enterobacter cloacae GN7471, agar-dilution method, read-out: Minimum Inhibitory Concentration.
Where [14] appears, read: Klebsiella pneumoniae GN69, agar-dilution method, read-out: Minimum Inhibitory Concentration.
The mark [15] stands for this setting: Proteus vulgaris 76, agar-dilution method, read-out: Minimum Inhibitory Concentration.
Where [16] appears, read: E2, Pseudomonas aeruginosa E-2, agar-dilution method, read-out: Minimum Inhibitory Concentration.
The mark [17] stands for this setting: IMA1007, Pseudomonas aeruginosa IMA-1007, agar-dilution method, read-out: Minimum Inhibitory Concentration.
The mark [18] stands for this setting: M0148, Pseudomonas aeruginosa M-0148, agar-dilution method, read-out: Minimum Inhibitory Concentration.
Setting [19] is: Serratia marcescens No. 1, agar-dilution method, read-out: Minimum Inhibitory Concentration.
[20] abbreviates: 209PJC1, Staphylococcus aureus 209PJC-1, agar-dilution method, read-out: Minimum Inhibitory Concentration.

≈ marks a conversion by molar mass, not a printed value. Read-outs that look alike come from different tables or passages of the source.

With `Cn1cc(O)c(=O)cc1/C=C/C1=C(C(=O)O)N2C(=O)[C@@H](NC(=O)/C(=N\OC(C)(C)C(=O)O)c3csc(N)n3)[C@H]2SC1` [Example 12, (6R,7R)-7-[(Z)-2-(2-aminothiazol-4-y1)-2-(1-methyl-1carboxy)ethoxyiminoacetamido]-3-[2-(5-hydroxy-1-methyl-4-pyridon-2-yl)vinyl]-ceph-3-em-4-carboxylic acid, trans-isomer], the MIC in assay [1] (setting [11]) was determined as 12.5 µg/mL (≈ 20.7 µM); in [2] (setting [12]), 3.13 µg/mL (≈ 5.18 µM); in [3] (setting [13]), 0.2 µg/mL (≈ 0.331 µM); against Escherichia coli 255, 0.05 µg/mL (≈ 0.0827 µM); against Escherichia coli No. 29, 0.1 µg/mL (≈ 0.165 µM); in [4] (setting [14]), 0.05 µg/mL (≈ 0.0827 µM). The MIC was at most 0.025 µg/mL with Proteus vulgaris 76 (setting [15]); 0.05 µg/mL (≈ 0.0827 µM) in assay [5] (setting [16]); at most 0.025 µg/mL in [6] (setting [17]); 0.2 µg/mL (≈ 0.331 µM) in [7] (setting [18]); at most 0.025 µg/mL in [8]; 0.1 µg/mL (≈ 0.165 µM) in assay [9] (setting [19]). For the same compound, the MIC in assay [10] (setting [20]) amounted to 100 µg/mL (≈ 165 µM).
`CC(C)(O/N=C(\C(=O)N[C@@H]1C(=O)N2C(C(=O)O)=C(/C=C/c3cc(=O)c(O)cn3Cc3ccncc3)CS[C@H]12)c1csc(N)n1)C(=O)O` [Example 21, (6R,7R)-7-[(Z)-2-aminothiazol-4-y1)-2-(1-methyl-1-carboxy)ethoxyiminoacetamido]-3-[2-(5-hydroxy-1-(4-pyridyl)methyl-4-pyridon-2-y1)vinyl]-ceph-3-em-4carboxylic acid, trans-isomer]: the MIC in [1] (setting [11]) was 12.5 µg/mL (≈ 18.3 µM); in [2] (setting [12]), 6.25 µg/mL (≈ 9.17 µM); in assay [3] (setting [13]), 1.56 µg/mL (≈ 2.29 µM); against Escherichia coli 255, 0.1 µg/mL (≈ 0.147 µM); against Escherichia coli No. 29, 0.1 µg/mL (≈ 0.147 µM); in assay [4] (setting [14]), 0.1 µg/mL (≈ 0.147 µM). Besides, the MIC in the assay on Proteus vulgaris 76 (setting [15]) is 0.05 µg/mL (≈ 0.0733 µM); in assay [5] (setting [16]), 0.05 µg/mL (≈ 0.0733 µM); in assay [6] (setting [17]), at most 0.025 µg/mL; in assay [7] (setting [18]), 0.2 µg/mL (≈ 0.293 µM); in assay [8], at most 0.025 µg/mL; in [9] (setting [19]) it was 0.1 µg/mL (≈ 0.147 µM). In assay [10] (setting [20]), the MIC is 100 µg/mL (≈ 147 µM).
Turning to `CO/N=C(\C(=O)N[C@@H]1C(=O)N2C(C(=O)O)=C(/C=C/c3cc(=O)c(O)cn3C)CS[C@H]12)c1csc(N)n1` [Example 7, (6R ,7R)-7 - [(Z )-2-(2-aminothiazol-4-yl)-2-methoxyiminoacetamido]-3-[2-(5-hydroxy-1-methyl-4-pyridon-2-yl)vinyl]-ceph-3-em-4-carboxylic acid, trans-isomer], the MIC stood at 0.78 µg/mL (≈ 1.46 µM) in assay [1] (setting [11]); 1.56 µg/mL (≈ 2.93 µM) in assay [2] (setting [12]); 0.1 µg/mL (≈ 0.188 µM) in assay [3] (setting [13]); 0.1 µg/mL (≈ 0.188 µM) against Escherichia coli 255; 0.05 µg/mL (≈ 0.0939 µM) in the assay on Escherichia coli No. 29; 0.05 µg/mL (≈ 0.0939 µM) in assay [4] (setting [14]). Also, the MIC with Proteus vulgaris 76 (setting [15]) is at most 0.025 µg/mL; in assay [5] (setting [16]), 1.56 µg/mL (≈ 2.93 µM); in assay [6] (setting [17]), 1.56 µg/mL (≈ 2.93 µM); in [7] (setting [18]) it was 12.5 µg/mL (≈ 23.5 µM); in [8], at most 0.025 µg/mL; in [9] (setting [19]), at most 0.025 µg/mL. Moreover, the MIC in assay [10] (setting [20]) is 6.25 µg/mL (≈ 11.7 µM).
Take `CO/N=C(\C(=O)N[C@@H]1C(=O)N2C(C(=O)O)=C(/C=C\c3cc(=O)c(O)cn3OC)CS[C@H]12)c1csc(N)n1` [Example 10]: the MIC in [1] (setting [11]) turned out to be 0.78 µg/mL (≈ 1.42 µM); in assay [2] (setting [12]), 25 µg/mL (≈ 45.6 µM); in assay [3] (setting [13]), 1.56 µg/mL (≈ 2.84 µM); with Escherichia coli 255 it was 0.2 µg/mL (≈ 0.365 µM); with Escherichia coli No. 29, 0.2 µg/mL (≈ 0.365 µM); in assay [4] (setting [14]), 0.2 µg/mL (≈ 0.365 µM). Moreover, the MIC was determined as 0.1 µg/mL (≈ 0.182 µM) in the assay on Proteus vulgaris 76 (setting [15]); 0.78 µg/mL (≈ 1.42 µM) in assay [5] (setting [16]); 0.78 µg/mL (≈ 1.42 µM) in assay [6] (setting [17]); 12.5 µg/mL (≈ 22.8 µM) in assay [7] (setting [18]); 12.5 µg/mL (≈ 22.8 µM) in assay [8]; 0.2 µg/mL (≈ 0.365 µM) in assay [9] (setting [19]). Moreover, in [10] (setting [20]), the MIC came out at 12.5 µg/mL (≈ 22.8 µM).
For the compound `CC(C)(O/N=C(\C(=O)N[C@@H]1C(=O)N2C(C(=O)[O-])=C(C[n+]3ccccc3)CS[C@H]12)c1csc(N)n1)C(=O)O` [Ceftazidime, reference compound], the MIC in assay [1] (Bacillus subtilis, ATCC6633, read-out: Minimum Inhibitory Concentration) came to 3.13 µg/mL (≈ 5.73 µM); in assay [2] it was 25 µg/mL (≈ 45.7 µM); in assay [3] (Enterobacter cloacae, GN7471, read-out: Minimum Inhibitory Concentration) it was 3.13 µg/mL (≈ 5.73 µM); with Escherichia coli 255, 25 µg/mL (≈ 45.7 µM); against Escherichia coli No. 29, 0.2 µg/mL (≈ 0.366 µM); in assay [4] (Klebsiella pneumoniae, GN69, read-out: Minimum Inhibitory Concentration), 0.1 µg/mL (≈ 0.183 µM). Also, the MIC in the assay on Proteus vulgaris 76 (Proteus vulgaris, 76, read-out: Minimum Inhibitory Concentration) is 0.05 µg/mL (≈ 0.0915 µM); in [5] (Pseudomonas aeruginosa, E2, read-out: Minimum Inhibitory Concentration) it was 0.39 µg/mL (≈ 0.714 µM); in assay [6] (Pseudomonas aeruginosa, IMA1007, read-out: Minimum Inhibitory Concentration), 0.78 µg/mL (≈ 1.43 µM); in [7] (Pseudomonas aeruginosa, M0148, read-out: Minimum Inhibitory Concentration), 1.56 µg/mL (≈ 2.85 µM); in assay [8] it was 0.39 µg/mL (≈ 0.714 µM); in assay [9] (Serratia marcescens, NO.1, read-out: Minimum Inhibitory Concentration), at most 0.025 µg/mL. In assay [10] (Staphylococcus aureus, 209PJC1, read-out: Minimum Inhibitory Concentration), the MIC turned out to be 3.13 µg/mL (≈ 5.73 µM).
Turning to `CC(C)(O/N=C(\C(=O)N[C@@H]1C(=O)N2C(C(=O)O)=C(/C=C/c3cc(=O)c(O)cn3O)CS[C@H]12)c1csc(N)n1)C(=O)O` [Example 5, (6R,7R)-7-[(Z)-2-(2-aminothiazol-4-yl)-2-(1-methyl-1carboxy)ethoxyiminoacetamido]-3-[2-(1,5-dihydroxy-4-pyridon-2-yl)vinyl]-ceph-3-em-4-carboxylic acid, trans-isomer], the MIC in assay [1] (setting [11]) is 100 µg/mL (≈ 165 µM); in assay [2] (setting [12]), 12.5 µg/mL (≈ 20.6 µM); in assay [3] (setting [13]) it was 0.78 µg/mL (≈ 1.29 µM); with Escherichia coli 255, at most 0.025 µg/mL; against Escherichia coli No. 29, 0.1 µg/mL (≈ 0.165 µM); in assay [4] (setting [14]), at most 0.025 µg/mL. Further, the MIC was at most 0.025 µg/mL in the assay with Proteus vulgaris 76 (setting [15]); at most 0.025 µg/mL in assay [5] (setting [16]); at most 0.025 µg/mL in assay [6] (setting [17]); at most 0.025 µg/mL in assay [7] (setting [18]); at most 0.025 µg/mL in assay [8]; 0.05 µg/mL (≈ 0.0824 µM) in assay [9] (setting [19]). Also, in assay [10] (setting [20]), the MIC was over 100 µg/mL.
For the compound `CO/N=C(\C(=O)N[C@@H]1C(=O)N2C(C(=O)O)=C(/C=C/c3cc(=O)c(O)cn3O)CS[C@H]12)c1csc(N)n1` [Example 2, (6R, 7R)-7-[(Z)-2-(2-aminothiazol-4-yl)-2-methoxyiminoacetamido]-3-[2-(1,5-dihydroxy-4-pyridon-2-yl)vinyl]-ceph-3-em-4-carboxylic], the MIC in assay [1] (setting [11]) was 6.25 µg/mL (≈ 11.7 µM); in assay [2] (setting [12]), 0.1 µg/mL (≈ 0.187 µM); in assay [3] (setting [13]), 0.05 µg/mL (≈ 0.0935 µM); against Escherichia coli 255, at most 0.025 µg/mL; in the assay with Escherichia coli No. 29 it was at most 0.025 µg/mL; in assay [4] (setting [14]) it was 0.05 µg/mL (≈ 0.0935 µM). Besides, the MIC was at most 0.025 µg/mL in the assay with Proteus vulgaris 76 (setting [15]); 0.1 µg/mL (≈ 0.187 µM) in [5] (setting [16]); 0.1 µg/mL (≈ 0.187 µM) in [6] (setting [17]); 0.2 µg/mL (≈ 0.374 µM) in assay [7] (setting [18]); at most 0.025 µg/mL in [8]; at most 0.025 µg/mL in assay [9] (setting [19]). In addition, the MIC in assay [10] (setting [20]) came to 25 µg/mL (≈ 46.8 µM).

The values above are taken from US4988686A, “Cephem compounds and anti-bacterial agent” (Meiji Seika Kabushiki Kaisha, priority 1988, dated 1991).
